{"source": "paper PMC5399447", "about": "“Neuroprotective pentapeptide CN-105 is associated with reduced sterile inflammation and improved functional outcomes in a traumatic brain injury murine model” (Scientific Reports, 2017)", "tested_on": "84 genes related to inflammatory and autoimmune processes", "experiment": "Mouse Inflammatory Response and Autoimmunity PCR Array, whole brain", "type": "in vivo", "protocol": "Frozen, pulverized whole brain tissue was processed for RNA extraction from a separate cohort of treated and untreated injured animals on days 1 post-injury(CN-105, n = 4; vehicle, n = 3; Control(sham-operated), n = 3). Total RNA was extracted from frozen, pulverized whole brain tissue using RNeasy Lipid Tissue Mini Kit(Qiagen, Valencia, CA). RNA quantity and quality was assessed with the NanoDrop ND-1000 spectrophotometer(NanoDrop Technologies, Inc., Wilmington, DE) and by agarose gel electrophoresis. Only samples with a 260/280 ratio between 1.9–2.1, and a 260/230 ratio greater than 2.0, were further processed. First strand complementary DNA(cDNA) was generated from 2 μg total RNA using the RT[2] First strand kit(SABiosciences, Frederick, MD.)\nGene expression was measured using the Mouse Inflammatory Response and Autoimmunity PCR Array(SABiosciences, Frederick, MD), which profiles the expression of 84 genes related to inflammatory and autoimmune processes. RT-PCR was performed according to manufacturer’s instructions Quality of the cDNA and PCR efficiency was verified by housekeeping genes and RT-PCR controls included in the PCR Array.\nRaw RT-PCR data were analyzed using the Web-Based PCR Array Data Analysis software(SABiosciences). ΔCt values and ΔΔCt - based fold-change were calculated from raw threshold cycle data, using beta-actin and glyceraldehyde 3-phosphate dehydrogenase(GAPDH) as internal standards for normalization. Fold changes were then normalized against sham-operated controls.", "key": {"[1]": {"settings": "TBI CN-105 vs TBI vehicle, brain 24 h post TBI"}, "[2]": {"settings": "TBI CN-105 vs sham vehicle, brain 24 h"}}}
{"substance": "Ac-VSRRR-amide [CN-105]", "values": [{"measurement": "Ccl24 Fold Change", "setting": "[1]", "result": "−14.8"}, {"measurement": "Ccl25 Fold Change", "setting": "[1]", "result": "−1.2"}, {"measurement": "Ccr1 Fold Change", "setting": "[1]", "result": 2.3}, {"measurement": "Ccr2 Fold Change", "setting": "[1]", "result": "−48.3"}, {"measurement": "Ccr3 Fold Change", "setting": "[1]", "result": 5.4}, {"measurement": "Ccr4 Fold Change", "setting": "[1]", "result": 1.2}, {"measurement": "Ccr7 Fold Change", "setting": "[1]", "result": 1.2}, {"measurement": "Cd40 Fold Change", "setting": "[1]", "result": "−7.8"}, {"measurement": "Cd40lg Fold Change", "setting": "[1]", "result": "−1.2"}, {"measurement": "Cebpb Fold Change", "setting": "[1]", "result": "−1.5"}, {"measurement": "Crp Fold Change", "setting": "[1]", "result": 1.2}, {"measurement": "Csf1 Fold Change", "setting": "[1]", "result": "−2.0"}, {"measurement": "Cxcl1 Fold Change", "setting": "[1]", "result": "−8.3"}, {"measurement": "Cxcl2 Fold Change", "setting": "[1]", "result": 4.8}, {"measurement": "Cxcl3 Fold Change", "setting": "[1]", "result": 2.4}, {"measurement": "Cxcl5 Fold Change", "setting": "[1]", "result": 6257}, {"measurement": "Cxcl9 Fold Change", "setting": "[1]", "result": "−70.3"}, {"measurement": "Cxcl10 Fold Change", "setting": "[1]", "result": "−47.9"}, {"measurement": "Cxcl11 Fold Change", "setting": "[1]", "result": 2.6}, {"measurement": "Cxcr4 Fold Change", "setting": "[1]", "result": "−7.3"}, {"measurement": "Fasl Fold Change", "setting": "[1]", "result": "−2.0"}, {"measurement": "Flt3l Fold Change", "setting": "[1]", "result": "−1.4"}, {"measurement": "Fos Fold Change", "setting": "[1]", "result": "−1.2"}, {"measurement": "Hdac4 Fold Change", "setting": "[1]", "result": "−1.1"}, {"measurement": "Ifng Fold Change", "setting": "[1]", "result": "−12.9"}, {"measurement": "Il1a Fold Change", "setting": "[1]", "result": "−10.1"}, {"measurement": "Il1b Fold Change", "setting": "[1]", "result": "−1.6"}, {"measurement": "Il1f10 Fold Change", "setting": "[1]", "result": 3.8}, {"measurement": "Il1r1 Fold Change", "setting": "[1]", "result": 3.5}, {"measurement": "Il1rap Fold Change", "setting": "[1]", "result": "−2.2"}, {"measurement": "Il1rn Fold Change", "setting": "[1]", "result": "−1.6"}, {"measurement": "Il6 Fold Change", "setting": "[1]", "result": "−29.8"}, {"measurement": "Il6ra Fold Change", "setting": "[1]", "result": "−2.9"}, {"measurement": "Il7 Fold Change", "setting": "[1]", "result": 515}, {"measurement": "Il8ra Fold Change", "setting": "[1]", "result": 1.2}, {"measurement": "Il8rb Fold Change", "setting": "[1]", "result": 1.1}, {"measurement": "Il9 Fold Change", "setting": "[1]", "result": 1.2}, {"measurement": "Il10 Fold Change", "setting": "[1]", "result": "−9.3"}, {"measurement": "Il10rb Fold Change", "setting": "[1]", "result": 2.6}, {"measurement": "Il18 Fold Change", "setting": "[1]", "result": 7.2}, {"measurement": "Il18rap Fold Change", "setting": "[1]", "result": "−3.6"}, {"measurement": "Il22 Fold Change", "setting": "[1]", "result": "−1.7"}, {"measurement": "Il22ra2 Fold Change", "setting": "[1]", "result": 10895}, {"measurement": "Il23a Fold Change", "setting": "[1]", "result": 18.5}, {"measurement": "Il23r Fold Change", "setting": "[1]", "result": 5.8}, {"measurement": "Itgb2 Fold Change", "setting": "[1]", "result": "−1.5"}, {"measurement": "Kng1 Fold Change", "setting": "[1]", "result": "−1.1"}, {"measurement": "Lta Fold Change", "setting": "[1]", "result": "−1.2"}, {"measurement": "Ltb Fold Change", "setting": "[1]", "result": 3.6}, {"measurement": "Ly96 Fold Change", "setting": "[1]", "result": 61.2}, {"measurement": "Myd88 Fold Change", "setting": "[1]", "result": "−273"}, {"measurement": "Nfatc3 Fold Change", "setting": "[1]", "result": 10044}, {"measurement": "Nfkb1 Fold Change", "setting": "[1]", "result": "−16.6"}, {"measurement": "Nr3c1 Fold Change", "setting": "[1]", "result": 13.7}, {"measurement": "Ripk2 Fold Change", "setting": "[1]", "result": "−1.1"}, {"measurement": "Tirap Fold Change", "setting": "[1]", "result": "−1.5"}, {"measurement": "Tlr1 Fold Change", "setting": "[1]", "result": "−1.4"}, {"measurement": "Tlr2 Fold Change", "setting": "[1]", "result": 1.0}, {"measurement": "Tlr3 Fold Change", "setting": "[1]", "result": 1.3}, {"measurement": "Tlr4 Fold Change", "setting": "[1]", "result": "−9.0"}, {"measurement": "Tlr5 Fold Change", "setting": "[1]", "result": 2.5}, {"measurement": "Tlr6 Fold Change", "setting": "[1]", "result": "−170"}, {"measurement": "Tlr7 Fold Change", "setting": "[1]", "result": 19.0}, {"measurement": "Tnf Fold Change", "setting": "[1]", "result": 6.9}, {"measurement": "Tnfsf14 Fold Change", "setting": "[1]", "result": "−2.8"}, {"measurement": "Tollip Fold Change", "setting": "[1]", "result": "−2.9"}, {"measurement": "Bcl6 fold change TBI-CN-105/S-v", "setting": "[2]", "result": 11.2}, {"measurement": "C3ar1 fold change TBI-CN-105/S-v", "setting": "[2]", "result": 34.9}, {"measurement": "C3 fold change TBI-CN-105/S-v", "setting": "[2]", "result": 4.6}, {"measurement": "C4b fold change TBI-CN-105/S-v", "setting": "[2]", "result": 163.3}, {"measurement": "Ccl2 fold change TBI-CN-105/S-v", "setting": "[2]", "result": 42.3}, {"measurement": "Ccl3 fold change TBI-CN-105/S-v", "setting": "[2]", "result": 17.7}, {"measurement": "Ccl4 fold change TBI-CN-105/S-v", "setting": "[2]", "result": 32.3}, {"measurement": "Ccl5 fold change TBI-CN-105/S-v", "setting": "[2]", "result": 3.8}, {"measurement": "Ccl7 fold change TBI-CN-105/S-v", "setting": "[2]", "result": 2.9}, {"measurement": "Ccl8 fold change TBI-CN-105/S-v", "setting": "[2]", "result": 5.6}, {"measurement": "Ccl11 fold change TBI-CN-105/S-v", "setting": "[2]", "result": 2253.1}, {"measurement": "Ccl12 fold change TBI-CN-105/S-v", "setting": "[2]", "result": 3.7}, {"measurement": "Ccl17 fold change TBI-CN-105/S-v", "setting": "[2]", "result": "−2.6"}, {"measurement": "Ccl19 fold change TBI-CN-105/S-v", "setting": "[2]", "result": "−5.8"}, {"measurement": "Ccl20 fold change TBI-CN-105/S-v", "setting": "[2]", "result": 3086.8}, {"measurement": "Ccl22 fold change TBI-CN-105/S-v", "setting": "[2]", "result": 176.2}, {"measurement": "Ccl24 fold change TBI-CN-105/S-v", "setting": "[2]", "result": 159.1}, {"measurement": "Ccl25 fold change TBI-CN-105/S-v", "setting": "[2]", "result": 16.9}, {"measurement": "Ccr1 fold change TBI-CN-105/S-v", "setting": "[2]", "result": "−2.5"}, {"measurement": "Ccr2 fold change TBI-CN-105/S-v", "setting": "[2]", "result": 5.6}, {"measurement": "Ccr3 fold change TBI-CN-105/S-v", "setting": "[2]", "result": 66.6}, {"measurement": "Ccr4 fold change TBI-CN-105/S-v", "setting": "[2]", "result": 7945.9}, {"measurement": "Ccr7 fold change TBI-CN-105/S-v", "setting": "[2]", "result": 283.2}, {"measurement": "Cd40 fold change TBI-CN-105/S-v", "setting": "[2]", "result": 38.8}, {"measurement": "Cebpb fold change TBI-CN-105/S-v", "setting": "[2]", "result": 3.5}, {"measurement": "Csf1 fold change TBI-CN-105/S-v", "setting": "[2]", "result": 1.1}, {"measurement": "Cxcl1 fold change TBI-CN-105/S-v", "setting": "[2]", "result": 29.4}, {"measurement": "Cxcl2 fold change TBI-CN-105/S-v", "setting": "[2]", "result": 25.5}, {"measurement": "Cxcl3 fold change TBI-CN-105/S-v", "setting": "[2]", "result": 54032.0}, {"measurement": "Cxcl5 fold change TBI-CN-105/S-v", "setting": "[2]", "result": 957.4}, {"measurement": "Cxcl9 fold change TBI-CN-105/S-v", "setting": "[2]", "result": 32.2}, {"measurement": "Cxcl10 fold change TBI-CN-105/S-v", "setting": "[2]", "result": "−1.7"}, {"measurement": "Cxcl11 fold change TBI-CN-105/S-v", "setting": "[2]", "result": 372.3}, {"measurement": "Cxcr4 fold change TBI-CN-105/S-v", "setting": "[2]", "result": 21.0}, {"measurement": "Fasl fold change TBI-CN-105/S-v", "setting": "[2]", "result": 3.2}, {"measurement": "Flt3l fold change TBI-CN-105/S-v", "setting": "[2]", "result": "−2.8"}]}
